This is an account of results in ChEMBL document CHEMBL1201862, “PubChem BioAssay data set” (2004).

One assay deals with Cytochrome P450 3A4 (Homo sapiens, UniProt P08684).
Another assay deals with Cytochrome P450 2C9 (Homo sapiens, UniProt P11712).
A further assay has as its target T1, Streptokinase A (Streptococcus pyogenes serotype M1, UniProt P10520).
T1 sequence (P10520 whole entry): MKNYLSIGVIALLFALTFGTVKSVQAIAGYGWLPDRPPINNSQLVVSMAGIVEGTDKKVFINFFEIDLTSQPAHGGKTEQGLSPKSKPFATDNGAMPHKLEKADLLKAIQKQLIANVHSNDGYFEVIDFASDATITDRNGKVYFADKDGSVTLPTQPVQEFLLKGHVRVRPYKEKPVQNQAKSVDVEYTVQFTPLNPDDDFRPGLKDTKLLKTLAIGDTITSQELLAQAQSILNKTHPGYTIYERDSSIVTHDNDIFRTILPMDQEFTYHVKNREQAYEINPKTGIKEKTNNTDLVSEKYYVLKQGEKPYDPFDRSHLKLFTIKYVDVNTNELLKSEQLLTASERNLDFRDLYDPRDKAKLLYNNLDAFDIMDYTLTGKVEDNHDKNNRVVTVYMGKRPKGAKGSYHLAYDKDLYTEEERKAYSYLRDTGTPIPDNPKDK
Kind of assay: viability-normalized secreted streptokinase activity reduction – plasminogen activation absorbance, OD405, dose response (AID 1914).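 Note: secreted streptokinase activity via plasminogen activation per viability signal from cell pellet.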 The assay is classed as functional, Streptococcus pyogenes M1 GAS.

For a further assay, the system named is Streptococcus. The experiment in a line: GAS UMAA2166 growth inhibition – luminescence, BacTiterGlo, counter-screen for streptokinase expression inhibitor project, dose response (AID 1915).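 Note: potency for reduction of bacterial viability or growth.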 The assay is classed as functional, organism-based.
The subject of assay [1] is Streptococcus sp. 'group A'. The experiment in a line: Streptococcus pyogenes SK(-)GAS viability under kanamycin – luminescence, BacTiterGlo, confirmation, counter-screen for streptokinase expression inhibitor project, dose response (AID 1900). The assay is classed as functional, organism-based. (A counterscreen serves to expose hits that act by an unwanted route or on another target.)

Assay [2] in a line: NIH3T3 cell viability loss – ATP luminescence, mouse fibroblasts, counter-screen, dose response (AID 2010).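 Note: cells exposed to compound for about 90 hours before reading.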 The assay is classed as functional, cell-based.
A short description of assay [3]: Trypanosoma cruzi growth suppression in host cells – NIH3T3 host cells, beta-gal luminescence, confirmation (AID 2044).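 Note: intracellular parasites grown in NIH/3T3 mouse fibroblasts as host cells; luminescent beta-galactosidase reporter signal from transgenic T. cruzi replicating inside host cells; inhibitors lower the luminescence signal.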 It is filed as functional, cell-based.
The target of assay [4] is T2, Corticotropin-releasing factor receptor 2/Corticotropin-releasing factor-binding protein (Homo sapiens, UniProt P24387+Q13324).
T2 sequence (Q13324 whole entry): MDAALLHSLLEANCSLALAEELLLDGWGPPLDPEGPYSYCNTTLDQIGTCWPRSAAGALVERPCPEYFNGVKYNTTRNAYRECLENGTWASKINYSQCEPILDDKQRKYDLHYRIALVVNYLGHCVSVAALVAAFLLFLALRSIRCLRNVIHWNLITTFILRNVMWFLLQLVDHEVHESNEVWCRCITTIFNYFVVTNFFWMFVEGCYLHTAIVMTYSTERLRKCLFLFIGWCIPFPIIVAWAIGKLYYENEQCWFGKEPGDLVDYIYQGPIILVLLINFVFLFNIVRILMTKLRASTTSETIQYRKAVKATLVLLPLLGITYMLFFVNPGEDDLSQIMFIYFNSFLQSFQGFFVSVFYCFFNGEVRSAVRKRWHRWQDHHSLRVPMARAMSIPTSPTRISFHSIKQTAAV
T2 sequence (P24387 whole entry): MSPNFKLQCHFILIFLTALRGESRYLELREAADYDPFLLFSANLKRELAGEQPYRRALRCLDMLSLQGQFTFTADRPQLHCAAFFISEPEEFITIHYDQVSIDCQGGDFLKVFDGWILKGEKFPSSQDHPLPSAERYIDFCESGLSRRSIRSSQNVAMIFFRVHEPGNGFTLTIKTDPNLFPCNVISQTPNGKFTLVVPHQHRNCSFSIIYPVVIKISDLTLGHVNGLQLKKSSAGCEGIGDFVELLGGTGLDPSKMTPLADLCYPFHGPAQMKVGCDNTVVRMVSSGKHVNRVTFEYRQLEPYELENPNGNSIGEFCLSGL
Kind of assay: activators of CRF receptor 2 with binding protein – uHTS hits, confirmation (AID 602473). The assay is classed as functional. The conditions noted are these: read-out: EC50_Mean.

Where “and” joins values, the source holds several entries; their conditions need not be identical. Equal entries are not always repeated. Calls of active or inactive are those of the source. Cut-off read from the data, not from the text of the source, for most assays here: actives have a measured EC50 and inactives only a lower limit. A value given as a limit tells only on which side of the number the result lay.

Cytochrome P450 3A4, sequence (P08684 whole entry): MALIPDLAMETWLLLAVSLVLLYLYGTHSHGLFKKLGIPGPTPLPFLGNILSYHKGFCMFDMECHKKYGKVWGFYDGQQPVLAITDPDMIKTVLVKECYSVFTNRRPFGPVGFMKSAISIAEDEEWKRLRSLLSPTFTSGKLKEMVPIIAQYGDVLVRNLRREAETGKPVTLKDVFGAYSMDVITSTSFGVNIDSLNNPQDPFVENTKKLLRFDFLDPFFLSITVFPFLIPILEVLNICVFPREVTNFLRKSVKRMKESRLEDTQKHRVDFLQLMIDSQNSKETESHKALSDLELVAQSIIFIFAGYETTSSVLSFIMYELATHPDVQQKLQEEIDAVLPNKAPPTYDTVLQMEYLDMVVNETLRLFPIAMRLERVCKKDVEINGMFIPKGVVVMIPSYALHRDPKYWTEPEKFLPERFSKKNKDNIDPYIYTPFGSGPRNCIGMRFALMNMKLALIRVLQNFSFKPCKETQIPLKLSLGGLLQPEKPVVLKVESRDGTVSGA
Cytochrome P450 2C9, sequence (P11712 whole entry): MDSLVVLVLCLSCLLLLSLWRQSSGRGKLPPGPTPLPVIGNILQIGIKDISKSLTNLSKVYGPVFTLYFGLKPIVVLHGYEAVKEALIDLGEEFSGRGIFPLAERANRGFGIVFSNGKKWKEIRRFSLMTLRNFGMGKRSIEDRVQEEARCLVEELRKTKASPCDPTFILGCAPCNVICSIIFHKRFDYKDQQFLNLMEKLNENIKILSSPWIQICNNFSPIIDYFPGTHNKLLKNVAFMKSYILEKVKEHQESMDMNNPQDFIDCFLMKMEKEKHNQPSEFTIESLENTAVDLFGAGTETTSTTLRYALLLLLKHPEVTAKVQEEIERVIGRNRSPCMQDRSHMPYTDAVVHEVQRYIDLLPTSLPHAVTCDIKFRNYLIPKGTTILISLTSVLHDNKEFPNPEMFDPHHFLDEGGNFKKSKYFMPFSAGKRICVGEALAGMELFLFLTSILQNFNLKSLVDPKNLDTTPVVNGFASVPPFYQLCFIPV

For orientation: AC50 means the concentration at which the activity in the assay is half-maximal. `CC(C)(C)c1cccc(Oc2nn[nH]n2)c1`: the half-maximal activity concentration (AC50) at Cytochrome P450 3A4 was 22.4 µM (inconclusive); at Cytochrome P450 2C9, 25.1 µM (inconclusive).

`C#CCCCO/N=C1/C[C@@H](O)[C@@H](O)[C@@H]2[C@@H]3C(=O)N(C[C@@H]4CCCO4)C(=O)[C@H]3CC[C@@H]12`: the concentration at half-maximal activity (AC50) at Cytochrome P450 3A4 was 3.98 µM (inconclusive).

With `CC(C)Oc1ccc2c(=O)c3cc(C(=O)O)ccc3oc2c1`, at Cytochrome P450 2C9, the AC50 is 31.6 µM (inconclusive). On to `C[C@H](NC(=O)c1ccc(Cl)c(Cl)c1)c1ccc(-c2ccccc2)cc1`, for which, at Cytochrome P450 2C9, the AC50 is 3.16 µM (inconclusive). `COc1ccc(-c2ccc3c(n2)CCCN3C[C@H](O)CN2CCCc3nc(-c4ccc(Br)cc4)ccc32)cc1`: the half-maximal activity concentration (AC50) at Cytochrome P450 2C9 was 3.98 µM (inconclusive) and 3.16 µM (inconclusive).

Take `Fc1ccc(-c2[nH]ncc2-c2nnnn2-c2ccccc2)c(F)c1`: at Cytochrome P450 3A4, the AC50 was 10 µM (inconclusive). On to `N#Cc1c(-c2ccccc2)nc(SCc2ccc(Cl)cc2)[nH]c1=O`, for which, on Streptokinase A, the EC50 is 5.41 µM (active).

As to `N#Cc1c(O)nc(SCc2ccc(Cl)cc2)nc1-c1ccccc1`, the EC50 with Streptococcus is 14.1 µM (active); in assay [1], 11.4 µM (active).

On to `CCC(C)NCCOCCOc1ccc(F)cc1` (centres undefined), for which the values for the EC50 in assay [2] and in assay [3] were 10.7 µM (active) and 0.806 µM (active), respectively. `O=C(c1cc(-c2ccncc2)nc2ccccc12)N1CCN(c2ccccn2)CC1`: the figures for the EC50 in assay [2] and in assay [3] were 10 µM (active) and 1.1 µM (active), respectively.

As to `CCN(CC)C(=O)c1cnc2ccc(S(=O)(=O)Nc3cc(C)cc(C)c3)cc2c1O`, in assay [4], the EC50 is 4.85 µM (active). On to `O=c1c(-c2cc(F)cc(F)c2)nc2cnc(Oc3ccccc3)nc2n1C[C@H]1CCCO1`, for which the AC50 on Cytochrome P450 3A4 is 15.8 µM (inconclusive). For the compound `Cc1cc(/C=C2\SC(=S)NC2=O)c(C)n1-c1cccc(O)c1`, the EC50 is 49.7 µM (inconclusive) in the assay with Streptococcus and 6.9 µM (active) in assay [1]. In the case of `Cc1ccc(C)c(NC(=O)NCc2ccc(Cl)cc2)c1`, the concentration at half-maximal activity (AC50) at Cytochrome P450 3A4 was 2.51 µM (inconclusive). Consider `O=C(COc1c(Cl)cccc1Cl)Nc1ccccc1N1CCCC1`, for which the EC50 in the assay on Streptococcus is > 150 µM (not active); in assay [1], 16.4 µM (active); on Streptokinase A it was 16.1 µM (active). `O=C(Cc1ccccc1)NN1C(=O)/C(=C/c2c[nH]c3ccccc23)SC1=S`: the EC50 with Streptococcus was > 150 µM (not active); in assay [1], 20.4 µM (active); at Streptokinase A it was > 150 µM (not active). For `Cc1ccc(S(=O)(=O)Nc2cc(C)c(O)c(S(=O)(=O)c3ccc(C)cc3)c2)cc1`, the figures for the EC50 (with Streptococcus; in assay [1]; at Streptokinase A) were > 150 µM (not active), 39.6 µM (active) and > 150 µM (not active), respectively.

For the compound `CC(C)Sc1cc(N2CCCC2)nc(-c2ccc(F)cc2)n1`, the AC50 on Cytochrome P450 3A4 was 17.8 µM (inconclusive); on Cytochrome P450 2C9 it was 7.94 µM (inconclusive). Besides, the EC50 was 23.8 µM (active) with Streptococcus, 6.81 µM (active) in assay [1] and 10.9 µM (active) on Streptokinase A.

Take `Cc1ccc2c(CC(=O)Nc3sccc3C(N)=O)coc2c1`: in assay [4], the EC50 was > 53 µM (inactive). Regarding `CCc1ccc(NC(S)=NC2CC3CCCC(C2)N3Cc2cccs2)cc1` (centres undefined), the EC50 in assay [2] was > 60 µM (not active); in assay [3] it was 5.85 µM (active). Take `CCOC(=O)CC1C(=O)NCCN1S(=O)(=O)c1ccc(Cl)c(Cl)c1` (centres undefined): the AC50 on Cytochrome P450 3A4 was 12.6 µM (inconclusive). As for `COc1ccc(-c2noc(-c3ccccc3-c3ccccc3)n2)cc1`, the EC50 with Streptococcus is > 150 µM (not active); in assay [1], 32.9 µM (active); at Streptokinase A, 17.8 µM (active). Consider `C=CCn1c(NCc2cc(Cl)ccc2O)nc2ccccc21`, for which the EC50 (in the assay with Streptococcus; in assay [1]; on Streptokinase A) was > 150 µM (not active) in each case.

As to `CCOC(=O)Cn1cc(C=C2C(=O)N(C)C(=O)N(C)C2=O)c2ccccc21`, in assay [4], the EC50 is 5.34 µM (active). `O=c1c2ccc([N+](=O)[O-])cc2ncn1CCOc1cccc(Br)c1`: the EC50 in assay [2] is > 60 µM (not active); in assay [3] it was 0.212 µM (active). For the compound `Cc1cc(C(F)(F)F)c(C#N)c(SCC(=O)Nc2nc3cc(Br)ccc3s2)n1`, the EC50 with Streptococcus was > 150 µM (not active); in assay [1], 3.48 µM (active); on Streptokinase A, 17.5 µM (active).

Turning to `O=C(c1cccs1)N1N=C(c2ccccc2)CC1c1ccccc1O` (centres undefined), the EC50 is > 60 µM (not active) in assay [2] and 2.84 µM (active) in assay [3]. Turning to `CN1CCC(N(C)CC(=O)Nc2cccc(Oc3ccccc3)c2)CC1`, the EC50 was > 60 µM (not active) in assay [2] and < 0.1 µM (active) in assay [3]. For the compound `Cc1cc(NC(=O)CN2C(=O)c3ccccc3C2=O)no1`, the EC50 (with Streptococcus; in assay [1]; at Streptokinase A) was > 150 µM (not active) in each case. Regarding `NC(=O)NC(=O)CSc1nc2sc(-c3ccccc3)cc2c(=O)n1-c1ccccc1`, the EC50 was 4.54 µM (active) with Streptococcus and 2.21 µM (active) in assay [1].

Consider `Nc1c2c(nc3ccccc13)CSCC2`, for which the EC50 was > 30 µM (not active) in assay [2] and 3.33 µM (active) in assay [3].

In the case of `CN1CCN(c2ccncc2S(=O)(=O)N2CCN(C)CC2)CC1`, the half-maximal activity concentration (AC50) at Cytochrome P450 3A4 was 3.16 µM (inconclusive). Turning to `O=C(NCCN1CCCCC1)c1ccc(I)cc1`, at Cytochrome P450 2C9, the concentration at half-maximal activity (AC50) is 31.6 µM (inconclusive).

As to `C=CCSc1nc2ccccc2c(=O)n1Cc1ccccc1`, the EC50 in the assay with Streptococcus is 99.4 µM (active); in assay [1], 15.7 µM (active); at Streptokinase A, > 150 µM (not active). `CO[C@@H]1COC(=O)C/C=C\[C@@H](C)[C@@H]2C=C[C@H](O)[C@@H](COC(=O)CCC[C@H]1C)O2`: the AC50 on Cytochrome P450 3A4 is 3.98 µM (inconclusive). With `Nc1c(C(=O)NCc2ccccc2)sc2nc3c(cc12)C(=O)CCC3`, the AC50 at Cytochrome P450 3A4 was 25.1 µM (inconclusive); at Cytochrome P450 2C9 it was 1.41 µM (inconclusive). For the compound `CC(Nc1nc(-c2ccccc2O)nc2ccccc12)c1ccccc1` (centres undefined), the figures for the EC50 (in the assay with Streptococcus; in assay [1]; at Streptokinase A) were > 150 µM (not active), 9.99 µM (active) and 8.55 µM (active), respectively. For `C=CCn1c(=O)c(C(=O)NCCN(CC)CC)c(O)c2ccccc21`, on Cytochrome P450 2C9, the half-maximal activity concentration (AC50) is 8.91 µM (inconclusive). For the compound `C=CCNCCOCCOc1ccc(C)cc1[N+](=O)[O-]`, the AC50 at Cytochrome P450 3A4 was 12.6 µM (inconclusive). With `NC(=S)N/N=C/c1ccc2ccccc2c1`, the values for the EC50 in assay [2] and in assay [3] were > 60 µM (not active) and 0.858 µM (active), respectively. For `Oc1ccc2ccccc2c1CN1CCCCC1`, the EC50 in assay [4] was 3.84 µM (active). For `O=C(/C=C/c1ccc([N+](=O)[O-])cc1)Oc1ccc(/C=N/NC(=O)c2ccncc2)cc1`, the EC50 is > 60 µM (not active) in assay [2] and 9.25 µM (active) in assay [3]. With `Cc1sc(N)c(C(=O)c2cccc(C(F)(F)F)c2)c1C`, the AC50 on Cytochrome P450 3A4 is 12.6 µM (inconclusive).
